The values that follow come from patent publication US20160206543A1, “SYNERGISTIC COMPOSITIONS AND METHODS FOR MITIGATING SKIN IRRITATION AND ENHANCING SKIN BARRIER FUNCTION” (GOJO INDUSTRIES, INC., priority 2014, published 2016).

Holding throughout (type): cell-based, human
One assay relates to DSC3. Description: Cell-cell junction, qRT-PCR for desmocollin (DSC3). Conditions: keratinocytes treated overnight; KGM = 100. The text has this: (§1) Tight Junctions are the closely associated areas of two cells whose membranes join together forming a virtually impermeable barrier to fluid. A desmosome is a cell structure specialized for cell-to-cell adhesion. A type of junction complex, they are localized spot-like adhesions randomly arranged on the lateral sides of plasma membranes. Desmosomes are molecular complexes of cell adhesion proteins and linking proteins that attach the cell surface adhesion proteins to intracellular keratin cytoskeletal filaments.
(§2) The cell adhesion proteins of the desmosome, desmoglein (DSG) and desmocollin (DSC), are members of the cadherin family of cell adhesion molecules. They are biomarker of skin tight junctions. In particular, DSG1 is a biomarker for cell binding, the higher the expression, the better skin cell-cell junction and the better skin barrier function will be. DSC3 is a protein in humans that is encoded by the DSC3 gene, the higher the expression, the better skin cell-cell junction and the better skin barrier function will be.
(§3) In the present method, keratinocytes were treated with the sample compositions in a 6-well plate overnight. After washing with cold phosphate-buffered saline (PBS), total RNAs were prepared from each well. Real-Time Quantitative Reverse Transcription PCR (qRT-PCR) was performed to detect the target genes ([…]) expression level using a One-step TaqMan® RT-PCR kit (Life Technologies).
(§4) Samples containing various amounts of acetyl hexapeptide-38 and/or acetyl hexapeptide-46 were tested for cell-cell junction, as described above. Solution of Vitamin D3 and keratinocyte growth medium (KGM) were used for comparison. The results are summarized in Tables 3-4 below, and graphically represented in FIGS. 3-4. It can be seen that compositions containing acetyl hexapeptide-38 and/or acetyl hexapeptide-46 enhanced cell-cell junction when compared to Vitamin D3 and KGM.

The subject of a further assay is IL-8. As to the kind of experiment: IL-8 ELISA (Part 1, Quantikine kit), surfactant-induced irritation. The conditions noted are these: for IL-8 secreted: human dermal keratinocytes co-treated with surfactant mixture (sodium laureth sulfate + polyquaternium-10), Control B = 100%, Control A = 0%; for Reduction of IL-8 Secretion Compared to Control B: subtracting from 100% for Control B. The text has this: Interleukin 8 (IL-8) is a chemokine and proinflammatory cytokine produced by macrophages and other cell types such as epithelial cells. It is secreted from keratinocytes in skin in response to inflammatory stimuli. IL-8 is secreted and is an important mediator of the immune reaction in the innate immune system response. IL-8 overexpressed is a biomarker of skin irritation.
For Control A, human dermal keratinocytes are left untreated. No irritation is expected, and therefore Control A provides a baseline. For Control B, IL-8 is induced in human dermal keratinocytes by applying a surfactant mixture that is a combination of sodium laureth sulfate and polyquaternium-10. For all other samples, the human dermal keratinocytes are co-treated with the surfactant mixture and a composition containing the ingredient of interest. Decreased Il-8 expression reflects the ingredient's anti-irritation activity.
In order to carry out the test method, an assay kit was employed that was obtained from R&D Systems: Human CXCL8/IL-8 Quantikine ELISA Kit.
The following steps were followed: 1. Bring all reagents and samples to room temperature before use. 2. Prepare all reagents, standard dilutions, and samples. 3. Remove excess microplate strips from the plate frame, return them to the foil pouch containing the desiccant pack, and reseal. 4. Add 100 μL of Assay Diluent to each well. 5. Add 50 μL of Standard, control, or sample to each well. Cover with a plate sealer, and incubate at room temperature for 2 hours. 6. Aspirate each well and wash, repeating the process 3 times for a total of 4 washes. 7. Add 100 μL of Conjugate to each well. Cover with a new plate sealer, and incubate at room temperature for 1 hour. 8. Aspirate and wash 4 times. 9. Add 200 μL Substrate Solution to each well. Incubate at room temperature for 30 minutes, making sure to protect the wells from the light. 10. Add 50 μL of Stop Solution to each well. The liquid was removed from the well and, using a colorimeter, absorbance was measured at 450 nanometers (nm) within 30 minutes. Wavelength correction was set to 540 nm or 570 nm.
The samples were tested for IL-8 secretion as described in the test method above. That is, for Control A, human dermal keratinocytes were left untreated. For Control B, IL-8 a surfactant mixture that was a combination of sodium laureth sulfate and polyquaternium-10. For all other samples, the human dermal keratinocytes were co-treated with the surfactant mixture and a composition containing the ingredient of interest. Decreased 11-8 expression reflects the ingredient's anti-irritation activity. The results are summarized in Table 2 and shown graphically in FIG. 1.
The amount of the reduction in IL-8 secretion for the test samples (subtracting from 100% for Control B) is summarized in Table 2 and shown graphically in FIG. 2. It can be seen that the combination of acetyl hexapeptide-46 and acetyl hexapeptide-38 produce an enhanced reduction in IL-8 secretion, particularly for the higher concentrations.
(In general: In an ELISA, binding on a coated surface is turned into a signal by an enzyme label.)

In another assay the test system is DSG1. Description: Cell-cell junction, qRT-PCR for desmoglein (DSG1). The conditions noted are these: keratinocytes treated overnight; KGM = 100.
Source text: as §1, §2, §3, §4
(Real-time PCR tracks product formation cycle by cycle.)

For the next assay, the system named is APQ3. Description: Skin water channel biomarker: APQ3 expression. Conditions: FIG. 10. The text has this: FIG. 5 is a graphical representation of the effect of various compositions on the irritation response of cells treated with known irritants, as quantified by measuring IL-8 secretion, and on cell viability. FIG. 6 is a graphical representation of Involucrin Expression—Keratinocytes (KC) differentiation. FIG. 7 is a graphical representation of PPARδ expression—ceramides related biomarker. FIG. 8 is a graphical representation of ABCA12 expression—fatty acid related biomarker. FIG. 9 is a graphical representation of DSC1 expression—cell-cell junction biomarker. FIG. 10 is a graphical representation of APQ3 expression—skin water channel.
An in vitro model was employed, using monolayer human dermal keratinocytes culture (KGM). Two controls were tested: the medium and inflammatory cytokines interleukin (IL-1b).
Skin Barrier Biomarkers: ABCA12, Involucrin, PPARδ. Different concentrations of ingredients were used to treat the keratinocyte for 24 hours. Cells were collected and total RNA prepared from the treated cells. Real-time RT-PCT was used to detect different barrier function related biomarker's gene expression level. Comparative Benchmark: Vitamin D3 (cholecalciferol) in three different concentrations.

Consider Acetyl hexapeptide-38 [Example 3A], for which the DSC3 % in the assay with DSC3 worked out at 160%. Take acetyl hexapeptide-38 [Example 1A]: in the assay with IL-8, the IL-8 secreted came out at 69.60% and the “Reduction of IL-8 Secretion Compared to Control B” value (“Reduction” for short) is on record as 30.40%. Consider Acetyl hexapeptide-38 [Example 3C], for which the DSG1 % with DSG1 stood at 178%. For the same compound, the DSC3 % in the assay on DSC3 amounted to 210%.

For the compound acetyl hexapeptide-38 [Example 1C], in the assay on IL-8, the IL-8 secreted is recorded as 84.90% and the “Reduction” value came to 15.10%.

As for acetyl hexapeptide-38, in the assay on IL-8, the “effect on IL-8 secretion compared to Control B (in words)” value is reported as “reduce the IL-8 secretion”. For the compound acetyl hexapeptide-46 [Example 2A], in the assay with IL-8, the IL-8 secreted was 27.10% and the “Reduction” value was found to be 72.90%.

Regarding acetyl hexapeptide-38 [Example 1B], in the assay with IL-8, the IL-8 secreted is recorded as 71.70% and the “Reduction” value is reported as 28.30%. For acetyl hexapeptide-46, the “effect on IL-8 secretion compared to Control B (in words)” value in the assay with IL-8 is on record as “reduce the IL-8 secretion”. Besides, the “APQ3 expression in KC (in words)” value with APQ3 was “does not individually stimulate APQ3 expression”.

With acetyl hexapeptide-38 [Example 1G], in the assay with IL-8, the IL-8 secreted came to 57.20% and the “Reduction” value is given as 42.80%. Acetyl hexapeptide-46 [Example 3F]: in the assay with DSG1, the DSG1 % was 199%. The same compound gave a DSC3 % with DSC3 of 265%.

As to acetyl hexapeptide-46 [Example 2B], in the assay with IL-8, the IL-8 secreted is listed as 50.90% and the “Reduction” value was 49.10%. As to acetyl hexapeptide-46 [Example 2D], in the assay on IL-8, the IL-8 secreted is on record as 78.20% and the “Reduction” value is recorded as 21.80%. Take acetyl hexapeptide-46 [Example 2G]: in the assay with IL-8, the IL-8 secreted was −6.90% and the “Reduction” value was found to be 106.90%. For the compound acetyl hexapeptide-38 [Example 1D], in the assay with IL-8, the IL-8 secreted is 95.80% and the “Reduction” value came to 4.20%. Compound Acetyl hexapeptide-46 [Example 3E] showed a DSG1 % with DSG1 of 162%. In the assay with DSC3, this compound came in with a DSC3 % of 377%. On the same counts, the results for Acetyl hexapeptide-38 [Example 3B] are 144% and 205%. For Acetyl hexapeptide-46 [Example 3D], the DSC3 % in the assay with DSC3 was 230%. In the assay with DSG1, `C=C1CC[C@H](O)C/C1=C/C=C1\CCC[C@]2(C)[C@@H]([C@H](C)CCCC(C)C)CC[C@@H]12` [VitD3, cholecalciferol, reference compound] displayed a DSG1 % of 65%. In the assay with DSC3, this compound returned a DSC3 % of 109%. With acetyl hexapeptide-46 [Example 2C], in the assay on IL-8, the IL-8 secreted is reported as 65.60% and the “Reduction” value was found to be 34.40%.
